{"source": "patent US11370798B2", "about": "(Vertex Pharmaceuticals Incorporated, priority 2012, dated 2022)"}
{"test_system": "HCT116 colorectal cancer cells", "assay": "Cisplatin sensitization assay (96 h cell viability MTS);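 further: Test-compound concentration that lowers the Cisplatin IC50 by a set fold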", "assay_type": "cell-based", "details": "compound and Cisplatin added simultaneously, Cisplatin sensitization value", "outline": "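Compound and cisplatin added together as a full matrix of 2-fold serial dilutions from a top final concentration of 10 μM; cells incubated 96 h at 37° C, 5% CO2. Viability then read by MTS after 1 h further incubation; sensitization value reported in μM bins.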"}
{"smiles": "CN1CC(NC(=O)C2CCN(c3c(F)cncc3NC(=O)c3c(N)nn4cc(F)cnc34)CC2)C1", "note": "[I-G-23, 2-amino-6-fluoro-N-(5-fluoro-4-(4-((1-methylazetidin-3-yl)carbamoyl)piperidin-1-yl)pyridin-3-yl)pyrazolo[1,5-a]pyrimidine-3-carboxamide]", "Cisplatin Sensitization Assay": "+++ (Cisplatin sensitization value of <0.02 μM)"}
{"smiles": "CN1CCC(NC(=O)C2CCN(c3c(F)cncc3NC(=O)c3c(N)nn4cc(F)cnc34)CC2)C1", "note": "(stereo not drawn) [I-G-24, 2-amino-6-fluoro-N-(5-fluoro-4-(4-((1-methylpyrrolidin-3-yl)carbamoyl)piperidin-1-yl)pyridin-3-yl)pyrazolo[1,5-a]pyrimidine-3-carboxamide]", "Cisplatin Sensitization Assay": "+++ (Cisplatin sensitization value of <0.02 μM)"}
{"smiles": "CN1CCN(C(=O)C2(C#N)CCN(c3c(F)cncc3NC(=O)c3c(N)nn4cc(F)cnc34)CC2)CC1", "note": "[I-G-25, 2-amino-N-(4-(4-cyano-4-(4-methylpiperazine-1-carbonyl)piperidin-1-yl)-5-fluoropyridin-3-yl)-6-fluoropyrazolo[1,5-a]pyrimidine-3-carboxamide]", "Cisplatin Sensitization Assay": "+++ (Cisplatin sensitization value of <0.02 μM)"}
{"smiles": "CN(C)CCCNC(=O)C1CCN(c2c(F)cncc2NC(=O)c2c(N)nn3cc(F)cnc23)CC1", "note": "[I-G-26, 2-amino-N-(4-(4-((3-(dimethylamino)propyl)carbamoyl)piperidin-1-yl)-5-fluoropyridin-3-yl)-6-fluoropyrazolo[1,5-a]pyrimidine-3-carboxamide]", "Cisplatin Sensitization Assay": "++ (Cisplatin sensitization value>0.02 μM but <0.2 μM)"}
{"smiles": "CC1(C)CN(C(=O)C2CCN(c3c(F)cncc3NC(=O)c3c(N)nn4cc(F)cnc34)CC2)CCN1", "note": "[I-G-27, 2-amino-N-(4-(4-(3,3-dimethylpiperazine-1-carbonyl)piperidin-1-yl)-5-fluoropyridin-3-yl)-6-fluoropyrazolo[1,5-a]pyrimidine-3-carboxamide]", "Cisplatin Sensitization Assay": "++ (Cisplatin sensitization value>0.02 μM but <0.2 μM)"}
{"smiles": "Nc1nn2cc(F)cnc2c1C(=O)Nc1cncc(F)c1N1CCC(C(=O)N2CCNC3(CC3)C2)CC1", "note": "[I-G-28, N-(4-(4-(4,7-diazaspiro[2.5]octane-7-carbonyl)piperidin-1-yl)-5-fluoropyridin-3-yl)-2-amino-6-fluoropyrazolo[1,5-a]pyrimidine-3-carboxamide]", "Cisplatin Sensitization Assay": "+++ (Cisplatin sensitization value of <0.02 μM)"}
{"smiles": "CN(C)C(=O)C1CCN(c2c(F)cncc2NC(=O)c2c(N)nn3cc(F)cnc23)CC1", "note": "[I-G-29, 2-amino-N-(4-(4-(dimethylcarbamoyl)piperidin-1-yl)-5-fluoropyridin-3-yl)-6-fluoropyrazolo[1,5-a]pyrimidine-3-carboxamide]", "Cisplatin Sensitization Assay": "+++ (Cisplatin sensitization value of <0.02 μM)"}
{"smiles": "CN(C)CCNC(=O)C1CCN(c2c(F)cncc2NC(=O)c2c(N)nn3cc(F)cnc23)CC1", "note": "[I-G-30, 2-amino-N-(4-(4-((2-(dimethylamino)ethyl)carbamoyl)piperidin-1-yl)-5-fluoropyridin-3-yl)-6-fluoropyrazolo[1,5-a]pyrimidine-3-carboxamide]", "Cisplatin Sensitization Assay": "+++ (Cisplatin sensitization value of <0.02 μM)"}
{"smiles": "CN(C)CCN(C)C(=O)C1CCN(c2c(F)cncc2NC(=O)c2c(N)nn3cc(F)cnc23)CC1", "note": "[I-G-31, 2-amino-N-(4-(4-((2-(dimethylamino)ethyl)(methyl)carbamoyl)piperidin-1-yl)-5-fluoropyridin-3-yl)-6-fluoropyrazolo[1,5-a]pyrimidine-3-carboxamide]", "Cisplatin Sensitization Assay": "+++ (Cisplatin sensitization value of <0.02 μM)"}
{"smiles": "Nc1nn2cc(F)cnc2c1C(=O)Nc1cncc(F)c1N1CCC(C(=O)N2CCN(C3COC3)CC2)CC1", "note": "[I-G-32, 2-amino-6-fluoro-N-[5-fluoro-4-[4-[4-(oxetan-3-yl)piperazine-1-carbonyl]-1-piperidyl]-3-pyridyl]pyrazolo[1,5-a]pyrimidine-3-carboxamide]", "Cisplatin Sensitization Assay": "+++ (Cisplatin sensitization value of <0.02 μM)"}
{"smiles": "CNC(=O)C1CCN(c2c(F)cncc2NC(=O)c2c(N)nn3cc(F)cnc23)CC1", "note": "[I-G-33, 2-amino-6-fluoro-N-(5-fluoro-4-(4-(methylcarbamoyl)piperidin-1-yl)pyridin-3-yl)pyrazolo[1,5-a]pyrimidine-3-carboxamide]", "Cisplatin Sensitization Assay": "+++ (Cisplatin sensitization value of <0.02 μM)"}
{"smiles": "CNC1CN(C(=O)C2CCN(c3c(F)cncc3NC(=O)c3c(N)nn4cc(F)cnc34)CC2)C1", "note": "[I-G-34, 2-amino-6-fluoro-N-(5-fluoro-4-(4-(3-(methylamino)azetidine-1-carbonyl)piperidin-1-yl)pyridin-3-yl)pyrazolo[1,5-a]pyrimidine-3-carboxamide]", "Cisplatin Sensitization Assay": "+++ (Cisplatin sensitization value of <0.02 μM)"}
{"smiles": "Nc1nn2cc(F)cnc2c1C(=O)Nc1cncc(F)c1N1CCC(C(=O)N2CCN(C3CCC3)CC2)CC1", "note": "[I-G-35, 2-amino-N-(4-(4-(4-cyclobutylpiperazine-1-carbonyl)piperidin-1-yl)-5-fluoropyridin-3-yl)-6-fluoropyrazolo[1,5-a]pyrimidine-3-carboxamide]", "Cisplatin Sensitization Assay": "+++ (Cisplatin sensitization value of <0.02 μM)"}
{"smiles": "Nc1nn2cc(F)cnc2c1C(=O)Nc1cncc(F)c1N1CCC(C(=O)N2CCOCC2)CC1", "note": "[I-G-36, 2-amino-6-fluoro-N-(5-fluoro-4-(4-(morpholine-4-carbonyl)piperidin-1-yl)pyridin-3-yl)pyrazolo[1,5-a]pyrimidine-3-carboxamide]", "Cisplatin Sensitization Assay": "+++ (Cisplatin sensitization value of <0.02 μM)"}
{"smiles": "Nc1nn2cc(F)cnc2c1C(=O)Nc1cncc(F)c1N1CCC(C(=O)NC2COC2)CC1", "note": "[I-G-37, 2-amino-6-fluoro-N-(5-fluoro-4-(4-(oxetan-3-ylcarbamoyl)piperidin-1-yl)pyridin-3-yl)pyrazolo[1,5-a]pyrimidine-3-carboxamide]", "Cisplatin Sensitization Assay": "++ (Cisplatin sensitization value>0.02 μM but <0.2 μM)"}
{"smiles": "CN1CCN(C(=O)C2CCN(c3c(F)cncc3NC(=O)c3c(N)nn4cc(F)cnc34)CC2)CC12CC2", "note": "[I-G-38, 2-amino-6-fluoro-N-(5-fluoro-4-(4-(4-methyl-4,7-diazaspiro[2.5]octane-7-carbonyl)piperidin-1-yl)pyridin-3-yl)pyrazolo[1,5-a]pyrimidine-3-carboxamide]", "Cisplatin Sensitization Assay": "+++ (Cisplatin sensitization value of <0.02 μM)"}
{"smiles": "COCCN(C)C(=O)C1CCN(c2c(F)cncc2NC(=O)c2c(N)nn3cc(F)cnc23)CC1", "note": "[I-G-40, 2-amino-6-fluoro-N-(5-fluoro-4-(4-((2-methoxyethyl)(methyl)carbamoyl)piperidin-1-yl)pyridin-3-yl)pyrazolo[1,5-a]pyrimidine-3-carboxamide]", "Cisplatin Sensitization Assay": "+++ (Cisplatin sensitization value of <0.02 μM)"}
{"smiles": "Nc1nn2cc(F)cnc2c1C(=O)Nc1cncc(F)c1N1CCC(C(=O)N2CC(O)C2)CC1", "note": "[I-G-41, 2-amino-6-fluoro-N-(5-fluoro-4-(4-(3-hydroxyazetidine-1-carbonyl)piperidin-1-yl)pyridin-3-yl)pyrazolo[1,5-a]pyrimidine-3-carboxamide]", "Cisplatin Sensitization Assay": "+++ (Cisplatin sensitization value of <0.02 μM)"}
